Assay results from patent publication US7932262B2 (Novartis AG, priority 2006, dated 2011).
Read-outs that look alike come from different tables or passages of the source.

Columns and labels:
A2780 cells = assay: Cell Proliferation Assay (Cell Titer Glo), A2780; assay type: cell-based; details: Homo sapiens, read-out: CPEC50 A2780
Experimental: IV. Cell Proliferation Assay Protocol:
A2780, PC-3, or PC3MM cells were seeded at 1000 cells/well in 100 μL/well (10.000 cells/mL) growth media in 96-well plates. Cells were allowed to adhere to the bottom of plates for 3-5 hours in a 37° C. 5% CO2 incubator. Compounds were dissolved in DMSO and then transferred to the cell plates. The cells were incubated with the compounds for 3 days in a 37° C. 5% CO2 incubator. The growth medium containing the compounds was then removed from the cells and fresh medium was added, followed by 100 μL of Cell Titer Glo assay reagent (Promega). This mixture was shaken for 1 minute and then incubated without shaking for 10 minutes. Activity determinations for the compounds were made by detection on a Trilux Instrument.

PDK1 kinase = molecular target: T1, PDK1 kinase (Homo sapiens, UniProt O15530); assay: PDK1 Kinase Alpha Screen Assay; assay type: biochemical; details: read-out: PDK1 IC50
T1 sequence (O15530 1-556): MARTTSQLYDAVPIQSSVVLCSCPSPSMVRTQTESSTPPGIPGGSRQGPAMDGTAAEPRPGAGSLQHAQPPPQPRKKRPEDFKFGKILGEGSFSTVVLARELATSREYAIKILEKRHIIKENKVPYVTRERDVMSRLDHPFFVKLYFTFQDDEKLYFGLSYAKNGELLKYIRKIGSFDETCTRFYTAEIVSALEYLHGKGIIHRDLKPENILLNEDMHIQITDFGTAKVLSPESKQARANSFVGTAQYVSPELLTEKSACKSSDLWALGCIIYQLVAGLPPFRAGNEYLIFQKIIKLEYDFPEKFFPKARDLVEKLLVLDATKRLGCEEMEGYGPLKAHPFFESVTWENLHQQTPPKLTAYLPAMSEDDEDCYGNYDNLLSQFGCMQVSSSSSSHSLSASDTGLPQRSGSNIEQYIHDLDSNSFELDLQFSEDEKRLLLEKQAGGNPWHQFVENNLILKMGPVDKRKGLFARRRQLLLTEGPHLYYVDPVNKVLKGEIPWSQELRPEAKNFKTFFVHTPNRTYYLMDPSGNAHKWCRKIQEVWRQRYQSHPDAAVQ
How it was run: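 Biotinylated PDK1-4 peptide (50 nM) phosphorylated by PDK1 with 10 uM ATP in pH 7.5 Tris/MgCl2/DTT buffer, 2.5% DMSO, for 3-18 hours. EDTA stop, then AlphaScreen detection with phospho-(Ser/Thr) PKA substrate antibody and protein A/streptavidin beads after overnight room-temperature development.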

[1] = cell proliferation, A2780 cells
[2] = Cell Proliferation Assay, A2780
[3] = 72 h, A2780 cells, 3 days incubation

## NS(=O)(=O)c1ccc(Nc2ncc3cccc(CNCc4ccccc4)c3n2)cc1 [Compound 901, 4-(8-((benzylamino)methyl)quinazolin-2-ylamino)benzenesulfonamide]
A2780 cells; [1]
  EC50: < 5 µM
PDK1 kinase; PDK1 Kinase Alpha Screen Assay
  IC50: < 5 µM

## Nc1ccc2cnc(Nc3ccc(S(N)(=O)=O)cc3)nc2c1 [Compound 315, 4-(7-aminoquinazolin-2-ylamino]-benzenesulfonamide]
A2780 cells; [2]
  EC50: < 5 µM
PDK1 kinase; PDK1 Kinase Alpha Screen Assay
  IC50: < 5 µM

## CC(C)NS(=O)(=O)c1cccc(Nc2ncc3cccc(OC4CCNCC4)c3n2)c1 [Compound 8, N-Isopropyl-3-[8-(piperidin-4-yloxy)-quinazolin-2-yl-amino]-benzenesulfonamide]
A2780 cells; [3]
  EC50: < 5 µM
PDK1 kinase
  IC50: < 5 µM

## CN1CCN(S(=O)(=O)c2cccc(Nc3ncc4cccc(OC5CCNCC5)c4n3)c2)CC1 [Compound 7, [3-(4-Methyl-piper-azine-1-sulfonyl)-phenyl]-[8-(piperidin-4-yloxy)-quinazolin-2-yl]-amine]
A2780 cells; [3]
  EC50: < 5 µM
PDK1 kinase
  IC50: < 5 µM

## NS(=O)(=O)c1ccc(Nc2ncc3cc(F)cc(-c4ccc(N5CCCC5)nc4)c3n2)cc1 [Compound 890, 4-(6-fluoro-8-(6-(pyrrolidin-1-yl)pyridin-3-yl)quinazolin-2-ylamino)benzenesulfonamide]
A2780 cells; [1]
  EC50: 5 to 10 µM
PDK1 kinase; PDK1 Kinase Alpha Screen Assay
  IC50: < 5 µM

## CS(=O)(=O)Nc1cccc(-c2cccc3cnc(Nc4ccc(S(N)(=O)=O)cc4)nc23)c1 [Compound 92, 4-[8-(3-Methanesulfonylamino-phenyl)-quinazolin-2-ylamino]-benzenesulfonamide]
A2780 cells; [3]
  EC50: < 5 µM
PDK1 kinase
  IC50: < 5 µM

## CC(C)Oc1cccc2cnc(Nc3cccc(S(N)(=O)=O)c3)nc12 [Compound 556, 3-(8-isopropoxyquinazolin-2-ylamino)benzenesulfonamide]
A2780 cells; [2]
  EC50: < 5 µM
PDK1 kinase; PDK1 Kinase Alpha Screen Assay
  IC50: < 5 µM

## CN1CCN(S(=O)(=O)c2ccc(Nc3ncc4cccc(OC5CCNCC5)c4n3)cc2)CC1 [Compound 10, [4-(4-Methyl-piper-azine-1-sulfonyl)-phenyl]-[8-(piper-idin-4-yloxy)-quinazolin-2-yl]-amine]
A2780 cells; [3]
  EC50: < 5 µM
PDK1 kinase
  IC50: < 5 µM

## NS(=O)(=O)c1ccc(Nc2ncc3ccc(-c4ccc5c(c4)CCNC5=O)c(OC4CCNCC4)c3n2)cc1 [Compound 64, 4-[7-(1-Oxo-1,2,3,4-tetrahydro-isoquinolin-6-yl)-8-(piperidin-4-yloxy)-quinazolin-2-ylamino]-benzenesulfonamide]
A2780 cells; [3]
  EC50: 5 to 10 µM
PDK1 kinase
  IC50: < 5 µM

## CN1CCN(C(=O)c2ccc3cnc(Nc4ccc(S(N)(=O)=O)cc4)nc3c2)CC1 [Compound 135, 4-[7-(4-Methyl-piperazine-1-carbonyl)-quinazolin-2-ylamino]-benzenesulfonamide]
A2780 cells; [3]
  EC50: 5 to 10 µM
PDK1 kinase
  IC50: 10 to 25 µM

## NC(=O)c1ccc(-c2ccc3cnc(Nc4ccc(S(N)(=O)=O)cc4)nc3c2)cc1 [Compound 124, 4-[2-(4-Sulfamoyl-phenylamino)-quinazolin-7-yl]-benzamide]
A2780 cells; [3]
  EC50: 5 to 10 µM
PDK1 kinase
  IC50: < 5 µM

## NS(=O)(=O)c1ccc(Nc2ncc3cccc(-c4ccc5c(c4)CCNC5=O)c3n2)cc1 [Compound 887, 4-(8-(1-oxo-1,2,3,4-tetrahydroisoquinolin-6-yl)quinazolin-2-ylamino)benzenesulfonamide]
A2780 cells; [1]
  EC50: 5 to 10 µM
PDK1 kinase; PDK1 Kinase Alpha Screen Assay
  IC50: < 5 µM

## Cc1cc(S(N)(=O)=O)ccc1Nc1ncc2cccc(OC(C)C)c2n1 [Compound 562, 4-(8-isopropoxyquinazolin-2-ylamino)-3-methylbenzenesulfonamide]
A2780 cells; [2]
  EC50: < 5 µM
PDK1 kinase; PDK1 Kinase Alpha Screen Assay
  IC50: 10 to 25 µM

## NS(=O)(=O)c1ccc(Nc2ncc3cc(F)cc(-c4ccc(F)nc4)c3n2)cc1 [Compound 633, 4-(6-fluoro-8-(6-fluoropyridin-3-yl)quinazolin-2-ylamino)benzenesulfonamide]
A2780 cells; [2]
  EC50: 5 to 10 µM

## CC(C)Oc1cccc2cnc(NC3CCN(C)CC3)nc12 [Compound 557, 8-isopropoxy-N-(1-methylpiperidin-4-yl)quinazolin-2-amine]
A2780 cells; [2]
  EC50: 5 to 10 µM

## COc1cc(-c2ccc3cnc(Nc4ccc(S(N)(=O)=O)cc4)nc3c2)c(Cl)cn1 [Compound 696, 4-(7-(5-chloro-2-methoxypyridin-4-yl)quinazolin-2-ylamino)benzenesulfonamide]
A2780 cells; [2]
  EC50: 5 to 10 µM

## NS(=O)(=O)c1ccc(Nc2ncc3cccc(C(=O)NCc4ccccn4)c3n2)cc1 [Compound 419, N-(pyridin-2-ylmethyl)-2-(4-sulfamoylphenylamino)quinazoline-8-carboxamide]
A2780 cells; [2]
  EC50: 5 to 10 µM

## COc1cccc(COc2cccc3cnc(Nc4ccc(S(N)(=O)=O)cc4)nc23)c1 [Compound 719, 4-(8-(3-methoxybenzyloxy)quinazolin-2-ylamino)benzenesulfonamide]
A2780 cells; [1]
  EC50: < 5 µM

## CC(C)Oc1cccc2cnc(Nc3cccnc3)nc12 [Compound 522, 8-isopropoxy-N-(pyridin-3-yl)quinazolin-2-amine]
A2780 cells; [2]
  EC50: 5 to 10 µM

## Fc1ccc(F)c(CNc2ncc3cccc(OC4CCCC4)c3n2)c1 [Compound 729, 8-(cyclopentyloxy)-N-(2,5-difluorobenzyl)quinazolin-2-amine]
A2780 cells; [1]
  EC50: 5 to 10 µM

## CC(=O)NCCNC(=O)c1cccc2cnc(Nc3ccc(S(N)(=O)=O)cc3)nc12 [Compound 626, N-(2-acetamidoethyl)-2-(4-sulfamoylphenylamino)quinazoline-8-carboxamide]
A2780 cells; [2]
  EC50: 5 to 10 µM

## CC(C)(C)OC(=O)N1CCC(Oc2c(Br)ccc3cnc(Nc4ccc(S(N)(=O)=O)cc4)nc23)CC1 [Compound 420, tert-butyl 4-(7-bromo-2-(4-sulfamoylphenylamino)quinazolin-8-yloxy)piperidine-1-carboxylate]
A2780 cells; [2]
  EC50: < 5 µM

## NS(=O)(=O)c1ccc(Nc2ncc3ccc(-c4ccc5c(c4)OCO5)cc3n2)cc1 [Compound 791, 4-(7-(benzo[d][1,3]dioxol-5-yl)quinazolin-2-ylamino)benzenesulfonamide]
A2780 cells; [1]
  EC50: 5 to 10 µM

## Oc1cccc2cnc(NCc3cc(F)ccc3F)nc12 [Compound 730, 2-(2,5-difluorobenzylamino)quinazolin-8-ol]
A2780 cells; [1]
  EC50: < 5 µM

## COc1cc(-c2ccc3cnc(Nc4ccc(S(N)(=O)=O)cc4)nc3c2)ccn1 [Compound 560, 4-(7-(2-methoxypyridin-4-yl)quinazolin-2-ylamino)benzenesulfonamide]
A2780 cells; [2]
  EC50: 5 to 10 µM

## CS(=O)(=O)CCNC(=O)c1cccc2cnc(Nc3ccc(S(N)(=O)=O)cc3)nc12 [Compound 627, N-(2-(methylsulfonyl)ethyl)-2-(4-sulfamoylphenylamino)quinazoline-8-carboxamide]
A2780 cells; [2]
  EC50: 5 to 10 µM

## CNC(=O)c1cccc2cnc(Nc3ccc(S(N)(=O)=O)cc3)nc12 [Compound 623, N-methyl-2-(4-sulfamoylphenylamino)quinazoline-8-carboxamide]
A2780 cells; [2]
  EC50: < 5 µM

## COc1ncccc1-c1ccc2cnc(Nc3ccc(S(N)(=O)=O)cc3)nc2c1 [Compound 314, 4-(7-(2-methoxypyridin-3-yl)quinazolin-2-ylamino)benzenesulfonamide]
A2780 cells; [2]
  EC50: 5 to 10 µM

## NS(=O)(=O)c1ccc(Nc2ncc3cccc(C(=O)NC4CCOCC4)c3n2)cc1 [Compound 625, 2-(4-sulfamoylphenylamino)-N-(tetrahydro-2H-pyran-4-yl)quinazoline-8-carboxamide]
A2780 cells; [2]
  EC50: < 5 µM

## NS(=O)(=O)c1ccc(Nc2ncc3cccc(OCc4ccc5nonc5c4)c3n2)cc1 [Compound 720, 4-(8-(benzo[c][1,2,5]oxadiazol-5-ylmethoxy)quinazolin-2-ylamino)benzenesulfonamide]
A2780 cells; [1]
  EC50: 5 to 10 µM
